System: SKH-1 mouse skin
Experiment: NanoString nCounter gene expression analysis (Mouse Inflammation V2 panel) of SKH-1 mouse skin
Type: in vivo
Procedure: UVB exposure was performed on AP-1 luciferase reporter mice on the SKH-1 genetic background at a dose of 2.75 kJ/m2 using FS40 bulbs (Q-Lab Corporation) as described before with the modification that mice were imaged 24 hr post UVB exposure using whole body bioluminescence instead of 48 hr post UVB using ear punches. SSL irradiation of SKH-1 mice (Charles River Laboratories, strain code 477) at a dose of 90 kJ/m2 UVA/6 kJ/m2 UVB was performed using UVA-340 bulbs (Q-Lab Corporation) as described before.
SKH-1 mouse skin [full thickness, 3 biological samples (i.e., 3 mice per treatment group)] treated either with vehicle (acetone) or 8 mM BMS-202 (all 3 times: 24 hr pre, 1 hr pre, and immediately post) and harvested 24 hr after acute SSL. First, total mRNA was prepared using the RNeasy Mini kit (Qiagen). Next, 100 ng was used for NanoString® nCounter® analysis (using the ‘Mouse Inflammation V2’ panel; probing 254 genes, NanoString® Technologies) comparing gene expression between treatment groups. Total mRNA was hybridized with the ‘Mouse Inflammation V2’ code set at 65° C. overnight. Further purification and binding of the hybridized probes to the optical cartridge was performed on the nCounter® Prep Station, and finally, the cartridge was scanned on the nCounter® Digital Analyzer. RCC files were then imported into nSolver4.0 software (NanoString® Technologies) and checked for data quality using default QC settings; all samples passed data quality QC. All samples were normalized using the geometric mean of the housekeeper genes. Expression ratios were calculated by dividing the mean values of all samples in one experimental group (UV+BMS-202) by the mean values of all samples in the reference group (UV+vehicle control). For data analysis, low count threshold value was 200. For heatmap depiction (FIGS. 3A and 3B, FIG. 5 and FIG. 6), a z-score for a specific gene indicates the number of SDs away from the mean of expression in the reference samples. For ‘pathway score analysis’ (FIGS. 4A, 4B, and 4C), each sample's gene expression profile was then condensed into a small set of pathway scores using nCounter® Advanced Analysis software (version 2.0.115). Pathway scores were fit using the first principal component of each gene set's data, oriented such that each pathway score has positive weights for at least half its genes.
Individual samples were run in triplicate format of biological replicates, and data analysis was performed using the nSolver analysis software (4.0). For p-value adjustment (Benjamini-Yekutieli False Discovery Rate; p-value threshold: 0.05), nCounter® Advanced Analysis software (version 2.0.115) was used. Nonparametric data analysis of murine experimentation was performed using the Mann-Whitney test. Differences between groups were considered significant at *p<0.05.

[1] = 8 mM topical + SSL vs SSL control, SKH-1 skin, 24 hr
[2] = 8 mM topical + SSL vs vehicle + SSL

COc1nc(OCc2cccc(-c3ccccc3)c2C)ccc1CNCCNC(C)=O [BMS-202]
Bcl6 fold change [1]: −12.8 fold | C1qa fold change [1]: −4.5 fold | C3 fold change [1]: −9.0 fold | C4a fold change [1]: −5.9 fold | C8b fold change [1]: 26.2 fold | C9 fold change [1]: 18.6 fold | Ccl2 fold change [1]: −5.3 fold | Ccl2 fold downregulation [1]: 5.3 fold | Ccl7 fold change [1]: −8.1 fold | Ccl7 fold downregulation [1]: 8.1 fold | Ccl8 fold change [1]: −5.0 fold | Ccl8 fold downregulation [1]: 5.0 fold | Ccr3 fold change [1]: 20.5 fold | Cdc42 fold change [1]: −4.6 fold | Cebpb fold change [1]: −8.3 fold | Cfl1 fold change [1]: −10.8 fold | Chi3l3 fold change [1]: 10.5 fold | Crp fold change [1]: 23.9 fold | Cxcl1 fold change [1]: −4.1 fold | Cxcl1 fold downregulation [1]: 4.1 fold | Cxcl3 fold change [1]: −9.1 fold | Cxcl5 fold change [1]: −11.6 fold | Cxcl5 fold downregulation [1]: 11.6 fold | Cxcl10 fold change [1]: 4.3 fold | Cysltr2 fold change [1]: 14.4 fold | Defa-rs1 fold change [1]: 51.0 fold | Fos fold change [1]: −4.1 fold | Fos fold downregulation [1]: 4.1 fold | Fxyd2 fold change [1]: −17.0 fold | Gnas fold change [1]: −11.5 fold | Gnas fold downregulation [1]: 11.5 fold | Gnb1 fold change [1]: −5.8 fold | Gnb1 fold downregulation [1]: 5.8 fold | Grb2 fold change [1]: −4.5 fold | H2-Eb1 fold change [1]: −14.2 fold | Hif1a fold change [1]: −9.6 fold | Hif1a fold downregulation [1]: 9.6 fold | II1r1 fold downregulation [1]: 5.5 fold | Ifi44 fold change [1]: 5.2 fold | Ifna1 fold change [1]: 89.3 fold | Ifnb1 fold change [1]: 16.4 fold | Ifng fold change [1]: 10.6 fold | Il1b fold downregulation [1]: 2.9 fold | Il1r1 fold change [1]: −5.5 fold | Il1rap fold downregulation [1]: 3.6 fold | Il6ra fold downregulation [1]: 3.4 fold | Il9 fold change [1]: 28.9 fold | Il10rb fold downregulation [1]: 3.2 fold | Il18 fold change [1]: −20.0 fold | Il18 fold downregulation [1]: 20.0 fold | Il21 fold change [1]: 50.1 fold | Il23a fold change [1]: 6.5 fold | Irf1 fold change [1]: −4.1 fold | Itgb2 fold change [1]: −8.2 fold | Jun fold change [1]: −5.9 fold | Jun fold downregulation [1]: 5.9 fold | Kng1 fold change [1]: 14.9 fold | Ly96 (coreceptor of Tlr4) fold downregulation [1]: 11.0 fold | Ly96 fold change [1]: −11.0 fold | Map2k1 fold change [1]: −5.8 fold | Map2k1 fold downregulation [1]: 5.8 fold | Map2k4 fold change [1]: −6.4 fold | Map2k4 fold downregulation [1]: 6.4 fold | Map3k1 fold change [1]: −4.5 fold | Map3k1 fold downregulation [1]: 4.5 fold | Map3k5 fold change [1]: −6.4 fold | Map3k5 fold downregulation [1]: 6.4 fold | Map3k7 fold downregulation [1]: 3.7 fold | Mapk1 fold downregulation [1]: 3.7 fold | Mapk3 fold change [1]: −6.3 fold | Mapk3 fold downregulation [1]: 6.3 fold | Mapk8 fold downregulation [1]: 3.1 fold | Mapk14 fold change [1]: −5.9 fold | Mapk14 fold downregulation [1]: 5.9 fold | Mapkapk2 fold change [1]: −5.2 fold | Mapkapk2 fold downregulation [1]: 5.1 fold | Mbl2 fold change [1]: 15.7 fold | Mef2c fold change [1]: −64.9 fold | Mmp3 fold downregulation [1]: 3.8 fold | Mmp9 fold change [1]: −8.2 fold | Mmp9 fold downregulation [1]: 8.2 fold | Mrc1 fold change [1]: −5.4 fold | Mx1 fold change [1]: 36.2 fold | Mx2 fold change [1]: 5.3 fold | Myc fold downregulation [1]: 3.3 fold | Myd88 fold downregulation [1]: 2.7 fold | Nf2el2 fold downregulation [1]: 3.5 fold | Nfatc3 fold change [1]: −4.1 fold | Nfatc3 fold downregulation [1]: 4.1 fold | Nfkb1 fold change [1]: −5.9 fold | Nfkb1 fold downregulation [1]: 5.9 fold | Nod2 fold change [1]: −5.1 fold | Nos2 fold change [1]: 6.1 fold | Nr3c1 fold change [1]: −4.9 fold | Oas1a fold change [1]: −4.3 fold | Pdgfa fold change [1]: −5.2 fold | Pdgfa fold downregulation [1]: 5.2 fold | Ppp1r12b fold change [1]: −12.1 fold | Ptgs1 fold downregulation [1]: 3.1 fold | Ptgs2 fold downregulation [1]: 1.7 fold | Rac1 fold change [1]: −7.3 fold | Rac1 fold downregulation [1]: 7.3 fold | Raf1 fold change [1]: −5.7 fold | Raf1 fold downregulation [1]: 5.7 fold | Rhoa fold change [1]: −5.9 fold | Shc1 fold change [1]: −7.4 fold | Stat1 fold downregulation [1]: 2.8 fold | Stat2 fold downregulation [1]: 2.5 fold | Stat3 fold change [1]: −7.4 fold | Stat3 fold downregulation [1]: 7.4 fold | Tcf4 fold change [1]: −4.4 fold | Tgfb1 fold change [1]: −13.3 fold | Tgfb1 fold downregulation [1]: 13.3 fold | Tgfb3 fold downregulation [1]: 2.7 fold | Tlr2 fold downregulation [1]: 2.4 fold | Tlr8 fold downregulation [1]: 3.4 fold | Tlr9 fold change [1]: 8.3 fold | Tnfsf14 fold change [1]: 4.8 fold | Trem2 fold change [1]: −4.5 fold | Tslp fold change [1]: 4.3 fold | Tyrobp fold change [1]: −4.9 fold | pathway score: immune response [2]: upregulated | pathway scores: activation of NFκB, innate immune response, chemokine activity, inflammatory response, angiogenesis [2]: downregulated

— US20260240826A1, “COMPOSITIONS FOR PD-L1 INHIBITION AND METHODS OF USE THEREOF” (ARIZONA BOARD OF REGENTS ON BEHALF OF THE UNIVERSITY OF …, priority 2023, published 2026)
